The text below walks through data of ChEMBL document CHEMBL5029165, “Derivatives of montanine-type alkaloids and their implication for the treatment of Alzheimer's disease: Synthesis, biological activity and in silico study” (Bioorg Med Chem Lett, 2021).

By inhibition is commonly meant the relative decrease from the control value, in per cent. Broadly, the IC50 is the concentration that inhibits the measured activity by half.

The target in experiment [1] is T1, Acetylcholinesterase (Homo sapiens, UniProt P22303). The experiment can be described thus: Inhibition of human AChE at 100 uM using acetylthiocholine as substrate by Ellman's method.
T1 sequence (P22303 whole entry): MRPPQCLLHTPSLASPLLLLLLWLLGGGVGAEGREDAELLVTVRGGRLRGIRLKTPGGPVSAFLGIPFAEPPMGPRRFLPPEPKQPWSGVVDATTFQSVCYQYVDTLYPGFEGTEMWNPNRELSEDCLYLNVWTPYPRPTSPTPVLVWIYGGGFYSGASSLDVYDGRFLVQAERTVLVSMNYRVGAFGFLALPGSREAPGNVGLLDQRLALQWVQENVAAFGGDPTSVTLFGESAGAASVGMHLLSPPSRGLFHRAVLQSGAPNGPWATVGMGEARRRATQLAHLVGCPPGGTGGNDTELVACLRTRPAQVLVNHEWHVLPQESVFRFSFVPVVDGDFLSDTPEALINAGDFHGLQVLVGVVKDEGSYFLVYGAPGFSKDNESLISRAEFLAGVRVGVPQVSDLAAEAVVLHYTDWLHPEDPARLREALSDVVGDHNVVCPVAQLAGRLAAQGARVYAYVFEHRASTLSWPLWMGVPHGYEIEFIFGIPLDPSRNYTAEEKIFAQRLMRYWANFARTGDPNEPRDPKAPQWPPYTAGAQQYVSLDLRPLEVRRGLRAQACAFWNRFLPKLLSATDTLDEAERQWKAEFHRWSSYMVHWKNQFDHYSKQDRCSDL
Experiment [2] addresses T1, Acetylcholinesterase. The experiment can be described thus: Inhibition of human AChE using acetylthiocholine as substrate by Ellman's method.
Experiment [3] concerns the target T2, Cholinesterase (Homo sapiens, UniProt P06276). The experiment can be described thus: Inhibition of human BuChE at 100 uM using butyrylthiocholine chloride as substrate by Ellman's method.
Experiment [4] addresses T2, Cholinesterase. The experiment can be described thus: Inhibition of human BuChE using butyrylthiocholine chloride as substrate by Ellman's method. (Ellman's reagent forms a yellow product with free thiols.)
Experiment [5] in a line: Selectivity index, ratio of IC50 for human BuChe to IC50 for human AChE.
A short description of experiment [6]: Selectivity index, ratio of IC50 for human AChE to IC50 for human BuChe.

T2 sequence (P06276 whole entry): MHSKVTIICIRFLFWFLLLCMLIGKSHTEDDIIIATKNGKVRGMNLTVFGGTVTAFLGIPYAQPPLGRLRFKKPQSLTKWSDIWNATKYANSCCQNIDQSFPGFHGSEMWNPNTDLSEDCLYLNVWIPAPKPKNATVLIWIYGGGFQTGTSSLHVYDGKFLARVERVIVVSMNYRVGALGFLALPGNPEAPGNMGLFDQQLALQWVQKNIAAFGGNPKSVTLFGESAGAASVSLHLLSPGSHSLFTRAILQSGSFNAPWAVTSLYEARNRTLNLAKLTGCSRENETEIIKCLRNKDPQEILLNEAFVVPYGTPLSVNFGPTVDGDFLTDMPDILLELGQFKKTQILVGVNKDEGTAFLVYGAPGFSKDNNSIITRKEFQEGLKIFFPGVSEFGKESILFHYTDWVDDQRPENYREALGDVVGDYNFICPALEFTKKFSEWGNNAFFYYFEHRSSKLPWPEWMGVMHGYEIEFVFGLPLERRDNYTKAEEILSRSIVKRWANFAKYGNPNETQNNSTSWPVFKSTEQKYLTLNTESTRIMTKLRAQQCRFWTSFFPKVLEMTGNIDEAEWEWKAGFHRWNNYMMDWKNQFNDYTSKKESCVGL

On to `CO[C@H]1C=C2[C@H]3CN(Cc4cc5c(cc43)OCO5)[C@H]2C[C@@H]1OC(=O)c1ccc(C)c([N+](=O)[O-])c1`, for which the inhibition came out at 30.3% in experiment [1] and 20.4% in experiment [3]. In addition, the IC50 in experiment [2] and in experiment [4] was more than 100 µM throughout.

In the case of `CO[C@H]1C[C@H]2C(=C[C@@H]1OC(=O)c1ccccc1C)[C@H]1CN2Cc2cc3c(cc21)OCO3`, the inhibition in experiment [1] was 29.7%; in experiment [3], 30.2%. Further, the IC50 in experiment [2] and in experiment [4] was more than 100 µM throughout.

Consider `O=C(O[C@@H]1C=C[C@]23CCN(Cc4cc5c(cc42)OCO5)[C@H]3C1)c1ccccc1[N+](=O)[O-]`, for which the values for the IC50 in experiment [2] and in experiment [4] were 60 µM and 1.4 µM, respectively.

Regarding `CO[C@H]1C[C@H]2C(=C[C@@H]1OC(=O)c1ccoc1)[C@H]1CN2Cc2cc3c(cc21)OCO3`, the inhibition is 6.8% in experiment [1] and 30.2% in experiment [3]. The IC50 in experiment [2] and in experiment [4] was more than 100 µM in each case.

As for `COc1ccc(C(=O)O[C@H]2C=C3[C@H]4CN(Cc5cc6c(cc54)OCO6)[C@H]3C[C@@H]2OC)cc1`, the inhibition stood at 12.5% in experiment [1] and 15.5% in experiment [3]. The IC50 in experiment [2] and in experiment [4] was more than 100 µM each time.

Take `CO[C@H]1C=C2[C@H]3CN(Cc4cc5c(cc43)OCO5)[C@H]2C[C@@H]1OC(=O)c1ccc(Cl)c([N+](=O)[O-])c1`: the inhibition in experiment [1] came out at 4.8%; in experiment [3], 13.8%. For the same compound, the IC50 in experiment [2] and in experiment [4] was more than 100 µM in each case.

As for `CO[C@H]1C[C@H]2C(=C[C@@H]1OC(=O)c1ccccc1[N+](=O)[O-])[C@H]1CN2Cc2cc3c(cc21)OCO3`, the inhibition was determined as 34.1% in experiment [1] and 45.4% in experiment [3]. Moreover, the IC50 in experiment [2] and in experiment [4] was more than 100 µM in each case.

Consider `COc1c2c(cc3c1OCO3)[C@]13C=C[C@H](OC)C[C@H]1N(C2)C[C@H]3OC(=O)c1cccc2ccccc12`, for which the IC50 is more than 100 µM in experiment [2] and 0.1 µM in experiment [4].

For the compound `CO[C@H]1C[C@H]2C(=C[C@@H]1OC(=O)c1ccc(C)c([N+](=O)[O-])c1)[C@H]1CN2Cc2cc3c(cc21)OCO3`, the inhibition was 81.5% in experiment [1] and 6.8% in experiment [3]. Moreover, the values for the IC50 in experiment [2] and in experiment [4] were 4.32 µM and more than 100 µM, respectively. Further, the Selectivity Index in experiment [5] was more than 23.1; in experiment [6], less than 0.04.

With `CO[C@H]1C[C@H]2C(=C[C@@H]1OC(=O)c1ccc(Cl)c([N+](=O)[O-])c1)[C@H]1CN2Cc2cc3c(cc21)OCO3`, the inhibition in experiment [1] was determined as 83.7%; in experiment [3], 26.5%. Besides, the results for the IC50 in experiment [2] and in experiment [4] were 1.61 µM and more than 100 µM, respectively. For the same compound, the Selectivity Index in experiment [5] is more than 62.1; in experiment [6], less than 0.02.

On to `CO[C@H]1C=C2[C@H]3CN(Cc4cc5c(cc43)OCO5)[C@H]2C[C@@H]1O`, for which the inhibition in experiment [1] amounted to 13.7%; in experiment [3] it was 8.4%.

In the case of `CO[C@H]1C=C2[C@H]3CN(Cc4cc5c(cc43)OCO5)[C@H]2C[C@@H]1OC(=O)c1cc([N+](=O)[O-])ccc1Cl`, the values for the inhibition in experiment [1] and in experiment [3] were 1.8% and 40.1%, respectively. In addition, the IC50 in experiment [2] and in experiment [4] was more than 100 µM in each case.

For `CO[C@H]1C[C@H]2C(=C[C@@H]1OC(=O)c1ccco1)[C@H]1CN2Cc2cc3c(cc21)OCO3`, the figures for the inhibition in experiment [1] and in experiment [3] were 15.1% and 26.9%, respectively. Further, the IC50 in experiment [2] and in experiment [4] was more than 100 µM each time.

On to `CO[C@H]1C[C@H]2C(=C[C@@H]1OC(=O)c1cc([N+](=O)[O-])ccc1Cl)[C@H]1CN2Cc2cc3c(cc21)OCO3`, for which the inhibition was 78.7% in experiment [1] and 30% in experiment [3]. The IC50 in experiment [2] was 3.18 µM; in experiment [4], more than 100 µM. For the same compound, the results for the Selectivity Index in experiment [5] and in experiment [6] were more than 31.4 and less than 0.03, respectively.

As to `CO[C@H]1C=C2[C@H]3C[N@@](Cc4cc5c(cc43)OCO5)[C@H]2C[C@@H]1O` [MONTANINE], the IC50 in experiment [2] and in experiment [4] was more than 100 µM throughout.

Regarding `CO[C@H]1C[C@H]2C(=C[C@@H]1OC(=O)c1cccc([N+](=O)[O-])c1)[C@H]1CN2Cc2cc3c(cc21)OCO3`, the inhibition in experiment [1] worked out at 55.3%; in experiment [3], 18.1%. Besides, the IC50 in experiment [2] and in experiment [4] was more than 100 µM each time.

As to `CO[C@H]1C[C@H]2C(=C[C@@H]1OC(=O)c1cccc(C)c1)[C@H]1CN2Cc2cc3c(cc21)OCO3`, the inhibition in experiment [1] worked out at 18.2%; in experiment [3], 12.9%. The IC50 in experiment [2] and in experiment [4] was more than 100 µM in each case.

As to `CO[C@H]1C[C@H]2C(=C[C@@H]1OC(=O)C1CCCCC1)[C@H]1CN2Cc2cc3c(cc21)OCO3`, the inhibition in experiment [1] was 1.2%; in experiment [3], 20.8%. Moreover, the IC50 in experiment [2] and in experiment [4] was more than 100 µM each time. Besides, the Selectivity Index was less than 0.02 in experiment [5] and more than 57.8 in experiment [6].

`CO[C@H]1C[C@H]2C(=C[C@@H]1OC(=O)c1ccccc1)[C@H]1CN2Cc2cc3c(cc21)OCO3`: the inhibition in experiment [1] came to 8.5%; in experiment [3], 20.1%. Further, the IC50 in experiment [2] and in experiment [4] was more than 100 µM throughout.

On to `CO[C@H]1C[C@H]2C(=C[C@@H]1OCCN1CCCCC1)[C@H]1CN2Cc2cc3c(cc21)OCO3`, for which the inhibition in experiment [1] was found to be 6.5%; in experiment [3] it was 45.2%. Also, the IC50 in experiment [2] and in experiment [4] was more than 100 µM each time.

Turning to `CO[C@H]1C[C@H]2C(=C[C@@H]1OC(=O)c1ccc([N+](=O)[O-])cc1)[C@H]1CN2Cc2cc3c(cc21)OCO3`, the values for the inhibition in experiment [1] and in experiment [3] were 48.1% and 26.2%, respectively. The IC50 in experiment [2] and in experiment [4] was more than 100 µM each time.

As for `CO[C@H]1C[C@H]2C(=C[C@@H]1OC(=O)c1ccc([N+](=O)[O-])cc1Cl)[C@H]1CN2Cc2cc3c(cc21)OCO3`, the figures for the inhibition in experiment [1] and in experiment [3] were 48.6% and 27.1%, respectively. In addition, the IC50 in experiment [2] and in experiment [4] was more than 100 µM in each case.

On to `COc1ccc(C(=O)O[C@H]2C=C3[C@H]4CN(Cc5cc6c(cc54)OCO6)[C@H]3C[C@@H]2OC)cc1OC`, for which the inhibition in experiment [1] came out at 17.2%; in experiment [3] it was 18.1%. The IC50 in experiment [2] and in experiment [4] was more than 100 µM in each case.

Regarding `CO[C@H]1C[C@H]2C(=C[C@@H]1OC(=O)c1cccs1)[C@H]1CN2Cc2cc3c(cc21)OCO3`, the inhibition came out at 29.4% in experiment [1] and 49.7% in experiment [3]. Also, the IC50 in experiment [2] and in experiment [4] was more than 100 µM in each case.

For `CO[C@H]1C=C2[C@H]3CN(Cc4cc5c(cc43)OCO5)[C@H]2C[C@@H]1OC(=O)c1ccc([N+](=O)[O-])cc1Cl`, the values for the inhibition in experiment [1] and in experiment [3] were 2.3% and 69.8%, respectively. The figures for the IC50 in experiment [2] and in experiment [4] were more than 100 µM and 17 µM, respectively. Further, the results for the Selectivity Index in experiment [5] and in experiment [6] were less than 0.17 and more than 5.9, respectively.

As for `O=C(O[C@H]1CN2Cc3cc4c(cc3[C@]13C=C[C@@H](O)C[C@H]23)OCO4)c1cccc([N+](=O)[O-])c1`, the IC50 in experiment [2] was 4 µM; in experiment [4], more than 100 µM.

`COc1cccc(C(=O)O[C@H]2C=C3[C@H]4CN(Cc5cc6c(cc54)OCO6)[C@H]3C[C@@H]2OC)c1`: the results for the inhibition in experiment [1] and in experiment [3] were 19.3% and 20.3%, respectively. The IC50 in experiment [2] and in experiment [4] was more than 100 µM in each case.

On to `Cc1ccccc1C(=O)O[C@@H]1C=C[C@]23CCN(Cc4cc5c(cc42)OCO5)[C@H]3C1`, for which the IC50 was more than 100 µM in experiment [2] and 8 µM in experiment [4].

In the case of `CO[C@H]1C[C@H]2C(=C[C@@H]1OC(=O)c1cc(Br)cc([N+](=O)[O-])c1)[C@H]1CN2Cc2cc3c(cc21)OCO3`, the figures for the inhibition in experiment [1] and in experiment [3] were 28% and 31.7%, respectively. Moreover, the IC50 in experiment [2] and in experiment [4] was more than 100 µM each time.

Regarding `CO[C@H]1C=C2[C@H]3CN(Cc4cc5c(cc43)OCO5)[C@H]2C[C@@H]1OC(=O)N1CCCCC1`, the inhibition in experiment [1] came out at 10.9%; in experiment [3] it was 88.2%. Also, the IC50 in experiment [2] is more than 100 µM; in experiment [4], 6.54 µM. Moreover, the Selectivity Index in experiment [5] is less than 0.07; in experiment [6], more than 15.3.

Turning to `COc1ccccc1C(=O)O[C@H]1C=C2[C@H]3CN(Cc4cc5c(cc43)OCO5)[C@H]2C[C@@H]1OC`, the inhibition was 15.6% in experiment [1] and 30.1% in experiment [3]. The IC50 in experiment [2] and in experiment [4] was more than 100 µM throughout.

Turning to `CO[C@H]1C[C@H]2C(=C[C@@H]1O)[C@H]1CN2Cc2cc3c(cc21)OCO3`, the inhibition in experiment [1] and in experiment [3] was 9.2% throughout. Besides, the IC50 in experiment [2] and in experiment [4] was more than 100 µM each time.

Consider `O=C(O[C@H]1CN2Cc3cc4c(cc3[C@]13C=C[C@@H](O)C[C@H]23)OCO4)c1ccccc1Cl`, for which the IC50 came to 13 µM in experiment [2] and 5.6 µM in experiment [4].

With `COc1ccccc1C(=O)O[C@H]1CN2Cc3cc4c(cc3[C@]13C=C[C@@H](O)C[C@H]23)OCO4`, the IC50 turned out to be 90 µM in experiment [2] and 3.3 µM in experiment [4].

On to `CO[C@H]1C[C@H]2C(=C[C@@H]1OC(=O)N1CCCCC1)[C@H]1CN2Cc2cc3c(cc21)OCO3`, for which the values for the inhibition in experiment [1] and in experiment [3] were 8.8% and 97%, respectively. The IC50 is more than 100 µM in experiment [2] and 1.73 µM in experiment [4].

For `CO[C@H]1C[C@H]2C(=C[C@@H]1OC(=O)c1ccc(C)cc1)[C@H]1CN2Cc2cc3c(cc21)OCO3`, the inhibition in experiment [1] was 12.4%; in experiment [3], 12.9%. In addition, the IC50 in experiment [2] and in experiment [4] was more than 100 µM each time.
